# Assay results: US20230077362A1 (CORTEVA AGRISCIENCE LLC, priority 2019, published 2023)
# Like-named read-outs stand apart in the source and are kept apart here.
# How the values were obtained:
# [1] = system: Beet Armyworm (Spodoptera exigua) ("BAW"), second instar larvae; experiment: Bioassay on beet armyworm (BAW), 128-well diet tray assay; type: in vivo; details: for pest or weed control at 50 µg/cm2: Spodoptera exigua; for BAW rating: Table ABC, species BAW, C = not tested, D = no activity noticed
# Procedure, shortened: (§1)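 Each value represents average percent mortality from eight wells. Larvae were kept in clear-covered trays at 25° C. for five to seven days on a 14-hour light, 10-hour dark schedule before scoring.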
# [2] = system: Cabbage Looper (Trichoplusia ni) ("CL"), second instar larvae; experiment: Bioassay on cabbage looper (CL), 128-well diet tray assay; type: in vivo; details: for pest or weed control at 50 µg/cm2: Trichoplusia ni; for CL rating: Table ABC, species CL, C = not tested, D = no activity noticed
# Procedure, shortened: as §1
# [3] = read-out: BAW (Biological Results, rating)
# [4] = read-out: CL (Biological Results, rating)
Structure (SMILES),"pest or weed control at 50 µg/cm2 [1, 3] [%]","pest or weed control at 50 µg/cm2 [2, 4] [%]",pest or weed control at 50 µg/cm2 ([1]; read-out: BAW rating) [%],pest or weed control at 50 µg/cm2 ([2]; read-out: CL rating) [%],also measured
"Cc1cc(-c2ncn(-c3ccc(OC(F)(F)F)cc3)n2)ccc1NC(=O)/N=C1\SCC(=O)N1c1cc(N(C)C)ccc1OCCC(F)(F)F [Compound J102, (Z)-1-(3-(5-(Dimethylamino)-2-(3,3,3-trifluoropropoxy)phenyl)-4-oxothiazolidin-2-ylidene)-3-(2-methyl-4-(1-(4-(trifluoromethoxy)phenyl)-1H-1,2,4-triazol-3-yl)phenyl)urea]",50 to 100,50 to 100,–,–,–
"Cc1ccc(C(C)C)c(N2C(=O)CS/C2=N\C(=O)Nc2ccc(-c3ncn(-c4ccc(C(F)(F)F)cn4)n3)cc2F)c1 [Compound J279, (Z)-1-(2-Fluoro-4-(1-(5-(trifluoromethyl)pyridin-2-yl)-1H-1,2,4-triazol-3-yl)phenyl)-3-(3-(2-isopropyl-5-methylphenyl)-4-oxothiazolidin-2-ylidene)urea]",50 to 100,50 to 100,–,–,–
COC(C)c1ccc(C)cc1N1C(=O)CS/C1=N\C(=O)Nc1ccc(-c2ccn(-c3ccc(C(F)(F)F)nn3)n2)cc1F (stereo not shown) [Compound J381],–,–,–,–,BAW rating [1]: A (50-100); CL rating [2]: A (50-100)
"Cc1ccc(OCCC(F)(F)F)c(N2C(=O)CS/C2=N\C(=O)Nc2ccc(-c3ncn(-c4ccc(S(F)(F)(F)(F)F)cc4)n3)cc2C#N)c1 [Compound J584, (Z)-1-(2-Cyano-4-(1-(4-(pentafluoro-λ^6-sulfaneyl)phenyl)-1H-1,2,4-triazol-3-yl)phenyl)-3-(3-(5-methyl-2-(3,3,3-trifluoropropoxy)phenyl)-4-oxothiazolidin-2-ylidene)urea]",–,–,50 to 100,50 to 100,–
"Cc1ccc(OCCC(F)(F)F)c(N2C(=O)C(Cl)S/C2=N\C(=O)Nc2ccc(-c3ncn(-c4ccc(OC(F)(F)F)cc4)n3)cc2F)c1 (stereo not shown) [Compound J36, (Z)-1-(5-Chloro-3-(5-methyl-2-(3,3,3-trifluoropropoxy)phenyl)-4-oxothiazolidin-2-ylidene)-3-(2-fluoro-4-(1-(4-(trifluoromethoxy)phenyl)-1H-1,2,4-triazol-3-yl)phenyl)urea]",50 to 100,50 to 100,–,–,–
"CCCc1ccc(C)cc1N1C(=O)CS/C1=N\C(=O)Nc1ccc(-c2ncn(-c3ccc(OC(F)(F)F)cc3)n2)cc1C [Compound J53, (Z)-1-(3-(5-Methyl-2-propylphenyl)-4-oxothiazolidin-2-ylidene)-3-(2-methyl-4-(1-(4-(trifluoromethoxy)phenyl)-1H-1,2,4-triazol-3-yl)phenyl)urea]",50 to 100,50 to 100,–,–,–
COc1ccc(COCC(F)(F)F)c(N2C(=O)CS/C2=N\C(=O)Nc2ccc(-c3ncn(-c4ccc(S(F)(F)(F)(F)F)cc4)n3)cc2C)c1 [Compound J577],–,–,–,–,BAW rating [1]: A (50-100); CL rating [2]: A (50-100)
"COCc1ccc(N(C)C)cc1N1C(=O)CS/C1=N\C(=O)Nc1ccc(-c2noc(-c3ccc(OC(F)(F)F)cc3)n2)cc1F [Compound J773, (Z)-1-(3-(5-(Dimethylamino)-2-(methoxymethyl)phenyl)-4-oxothiazolidin-2-ylidene)-3-(2-fluoro-4-(5-(4-(trifluoromethoxy)phenyl)-1,2,4-oxadiazol-3-yl)phenyl)urea]",–,–,50 to 100,50 to 100,–
CCC(OC)c1ccc(C)cc1N1C(=O)CS/C1=N\C(=O)Nc1ccc(-c2ncn(-c3ccc(OC(F)(F)F)cc3)n2)cc1F (stereo not shown) [Compound J421],–,–,50 to 100,50 to 100,–
"Cc1ccc(C(C)C)c(N2C(=O)CS/C2=N\C(=O)Nc2c(C)cc(-c3ncn(-c4ccc(OC(F)(F)F)cc4)n3)cc2C)c1 [Compound J95, (Z)-1-(2,6-Dimethyl-4-(1-(4-(trifluoromethoxy)phenyl)-1H-1,2,4-triazol-3-yl)phenyl)-3-(3-(2-isopropyl-5-methylphenyl)-4-oxothiazolidin-2-ylidene)urea]",50 to 100,50 to 100,–,–,–
"CC(C)c1ccc(N(C)C)cc1N1C(=O)CS/C1=N\C(=O)Nc1ccc(-c2ncn(-c3ccc(SC(F)(F)F)cc3)n2)cc1F [Compound J334, (Z)-1-(3-(5-(Dimethylamino)-2-isopropylphenyl)-4-oxothiazolidin-2-ylidene)-3-(2-fluoro-4-(1-(4-((trifluoromethyl)thio)phenyl)-1H-1,2,4-triazol-3-yl)phenyl)urea]",50 to 100,50 to 100,–,–,–
"Cc1ccc(COCC(F)(F)F)c(N2C(=O)CS/C2=N\C(=O)Nc2ccc(-c3nc(-c4ccc(OC(F)(F)F)cc4)no3)cc2F)c1 [Compound J427, (Z)-1-(2-Fluoro-4-(3-(4-(trifluoromethoxy)phenyl)-1,2,4-oxadiazol-5-yl)phenyl)-3-(3-(5-methyl-2-((2,2,2-trifluoroethoxy)methyl)phenyl)-4-oxothiazolidin-2-ylidene)urea]",–,–,50 to 100,50 to 100,–
"CCOCc1ccc(C)cc1N1C(=O)CS/C1=N\C(=O)Nc1ccc(-c2ncn(-c3ccc(OCC(F)(F)F)cc3)n2)cc1F [Compound J766, (Z)-1-(3-(2-(Ethoxymethyl)-5-methylphenyl)-4-oxothiazolidin-2-ylidene)-3-(2-fluoro-4-(1-(4-(2,2,2-trifluoroethoxy)phenyl)-1H-1,2,4-triazol-3-yl)phenyl)urea]",–,–,50 to 100,50 to 100,–
"COc1ccc(-n2cnc(-c3ccc(NC(=O)/N=C4\SCC(=O)N4c4cc(C)c(C)cc4COCC(F)(F)F)c(F)c3)n2)cc1 [Compound J756, (Z)-1-(3-(4,5-Dimethyl-2-((2,2,2-trifluoroethoxy)methyl)phenyl)-4-oxothiazolidin-2-ylidene)-3-(2-fluoro-4-(1-(4-methoxyphenyl)-1H-1,2,4-triazol-3-yl)phenyl)urea]",–,–,50 to 100,50 to 100,–
"CCCc1ccc(N(C)C)cc1N1C(=O)CS/C1=N\C(=O)Nc1ccc(-c2cn(-c3ccc(S(F)(F)(F)(F)F)cc3)cn2)cc1F [Compound J602, (Z)-1-(3-(5-(Dimethylamino)-2-propylphenyl)-4-oxothiazolidin-2-ylidene)-3-(2-fluoro-4-(1-(4-(pentafluoro-λ^6-sulfaneyl)phenyl)-1H-imidazol-4-yl)phenyl)urea]",–,–,50 to 100,50 to 100,–
"Cc1ccc(OCCC(F)(F)F)c(N2C(=O)CS/C2=N\C(=O)Nc2ccc(-n3cnc(-c4ccc(C(F)(F)F)cc4)n3)cc2F)c1 [Compound J702, (Z)-1-(2-Fluoro-4-(3-(4-(trifluoromethyl)phenyl)-1H-1,2,4-triazol-1-yl)phenyl)-3-(3-(5-methyl-2-(3,3,3-trifluoropropoxy)phenyl)-4-oxothiazolidin-2-ylidene)urea]",–,–,50 to 100,50 to 100,–
Cc1ccc(COCCC(F)(F)F)c(N2C(=O)CS/C2=N\C(=O)Nc2ccc(-c3ncn(-c4ccc(OC(F)(F)F)cc4)n3)cc2F)c1 [Compound J543],–,–,–,–,BAW rating [1]: A (50-100); CL rating [2]: A (50-100)
"COc1ccc(-n2cnc(-c3ccc(NC(=O)/N=C4\SCC(=O)N4c4cc(C)ccc4COCC(F)F)c(F)c3)n2)cc1 [Compound J757, (Z)-1-(3-(2-((2,2-Difluoroethoxy)methyl)-5-methylphenyl)-4-oxothiazolidin-2-ylidene)-3-(2-fluoro-4-(1-(4-methoxyphenyl)-1H-1,2,4-triazol-3-yl)phenyl)urea]",–,–,50 to 100,50 to 100,–
"Cc1cc(-c2ncn(-c3ccc(S(=O)(=O)C(F)(F)F)cc3)n2)ccc1NC(=O)/N=C1\SCC(=O)N1c1cc(C#N)ccc1OCCC(F)(F)F [Compound J376, (Z)-1-(3-(5-Cyano-2-(3,3,3-trifluoropropoxy)phenyl)-4-oxothiazolidin-2-ylidene)-3-(2-methyl-4-(1-(4-((trifluoromethyl)sulfonyl)phenyl)-1H-1,2,4-triazol-3-yl)phenyl)urea]",–,–,50 to 100,50 to 100,–
"Cc1ccc(COCC(F)(F)F)c(N2C(=O)CS/C2=N\C(=O)Nc2ccc(-c3ncn(-c4ccc(SC(F)(F)F)cc4)n3)cc2C)c1 [Compound J204, (Z)-1-(3-(5-Methyl-2-((2,2,2-trifluoroethoxy)methyl)phenyl)-4-oxothiazolidin-2-ylidene)-3-(2-methyl-4-(1-(4-((trifluoromethyl)thio)phenyl)-1H-1,2,4-triazol-3-yl)phenyl)urea]",50 to 100,50 to 100,–,–,–
"CCCc1ccc(N(C)C)cc1N1C(=O)CS/C1=N\C(=O)Nc1ccc(-c2ncn(-c3ccc(C(F)(F)F)cn3)n2)cc1C [Compound J294, (Z)-1-(3-(5-(Dimethylamino)-2-propylphenyl)-4-oxothiazolidin-2-ylidene)-3-(2-methyl-4-(1-(5-(trifluoromethyl)pyridin-2-yl)-1H-1,2,4-triazol-3-yl)phenyl)urea]",50 to 100,50 to 100,–,–,–
"Cc1ccc(COCC(F)(F)F)c(N2C(=O)CS/C2=N\C(=O)Nc2ccc(-c3ncn(-c4ccc(CC#N)cc4)n3)cc2F)c1 [Compound J425, (Z)-1-(4-(1-(4-(Cyanomethyl)phenyl)-1H-1,2,4-triazol-3-yl)-2-fluorophenyl)-3-(3-(5-methyl-2-((2,2,2-trifluoroethoxy)methyl)phenyl)-4-oxothiazolidin-2-ylidene)urea]",–,–,50 to 100,50 to 100,–
CCCOCc1ccc(C)cc1N1C(=O)CS/C1=N\C(=O)Nc1ccc(-c2ncn(-c3ccc(S(F)(F)(F)(F)F)cc3)n2)cc1F [Compound J544],–,–,–,–,BAW rating [1]: A (50-100); CL rating [2]: A (50-100)
